According to patent US8524725B2, “Methods of using diaminopyrimidine as P2X3 and P2X⅔ receptor modulators for treatment of respiratory and gastrointestinal diseases” (Roche Palo Alto LLC, priority 2005, dated 2013):
Structures can show the parent of a compound that is named as a salt.

For `COc1cc(Cc2cnc(NCCO)nc2N)c(C(C)C)cc1OC` (as salt: HCl), the melting point was greater than 300 °C.

First: CNC(=O)OC[C@@H](C)Nc1ncc(Oc2cc(Cl)c(OC)cc2C(C)C)c(N)n1 (stereo in doubt)
Second: COc1cc(C(C)C)c(Oc2cnc(N[C@H](C)CO)nc2N)cc1Cl (as salt: hydrochloride)
The melting point of the first is lower: 63.5 to 69.4 °C for the first, 111.4 to 116.9 °C for the second.

With `COc1cc(C(C)C)c(Oc2cnc(N)nc2N)cc1Cl` (as salt: trifluoroacetic acid salt) the melting point was 135 to 138.5 °C.
